Experimental data reported in article PMC5787524, “Discovery of a FLT3 inhibitor LDD1937 as an anti-leukemic agent for acute myeloid leukemia” (Oncotarget, 2017).

How the values were obtained:
[1] = test system: phosphorylated STAT5 in MV-4-11 cells; experiment: STAT5 phosphorylation western blot; assay type: cell-based, human; details: MV-4-11, 4 h
Experimental: Cells were lysed in SDS Lysis buffer (12 mM Tris-Cl, pH 6.8, 5% glycerol, and 0.4% SDS), and the protein concentrations were measured with the SMART BCA Protein Assay kit (iNtRON Biotechnology, Korea). The proteins were resolved with SDS-polyacrylamide gel electrophoresis followed by transfer to PVDF membranes (Millipore, Billerica, MA, USA) and incubated overnight with the appropriate antibodies. The antibodies used were as follows: phospho-STAT5 (p-STAT5; rabbit polyclonal IgG; #9351, 1:1,000), cyclin D1 (rabbit polyclonal IgG; #2922, 1:1,000), and PARP (rabbit polyclonal IgG; #9542, 1:1,000) from Cell Signaling Technology (Danver, MA, USA), STAT5 (rabbit polyclonal IgG; #sc-835, 1:1,000) from Santa Cruz (Santa Cruz, CA, USA), and β-actin (mouse monoclonal IgG; # A5441, 1:5000) from Sigma-Aldrich. Goat anti-rabbit IgG (#111-035-003; 1;5,000) and anti-mouse IgG (#115-035-033; 1:5,000) secondary antibodies were obtained from Jackson ImmunoResearch Laboratories, Inc. (West Grove, PA, USA).

JAK3 = target: T1, JAK3 (Homo sapiens, UniProt P52333); experiment: In vitro JAK3 kinase assay (HTRF); assay type: biochemical; details: mean ± S.D.
T1 sequence (P52333 1-1124): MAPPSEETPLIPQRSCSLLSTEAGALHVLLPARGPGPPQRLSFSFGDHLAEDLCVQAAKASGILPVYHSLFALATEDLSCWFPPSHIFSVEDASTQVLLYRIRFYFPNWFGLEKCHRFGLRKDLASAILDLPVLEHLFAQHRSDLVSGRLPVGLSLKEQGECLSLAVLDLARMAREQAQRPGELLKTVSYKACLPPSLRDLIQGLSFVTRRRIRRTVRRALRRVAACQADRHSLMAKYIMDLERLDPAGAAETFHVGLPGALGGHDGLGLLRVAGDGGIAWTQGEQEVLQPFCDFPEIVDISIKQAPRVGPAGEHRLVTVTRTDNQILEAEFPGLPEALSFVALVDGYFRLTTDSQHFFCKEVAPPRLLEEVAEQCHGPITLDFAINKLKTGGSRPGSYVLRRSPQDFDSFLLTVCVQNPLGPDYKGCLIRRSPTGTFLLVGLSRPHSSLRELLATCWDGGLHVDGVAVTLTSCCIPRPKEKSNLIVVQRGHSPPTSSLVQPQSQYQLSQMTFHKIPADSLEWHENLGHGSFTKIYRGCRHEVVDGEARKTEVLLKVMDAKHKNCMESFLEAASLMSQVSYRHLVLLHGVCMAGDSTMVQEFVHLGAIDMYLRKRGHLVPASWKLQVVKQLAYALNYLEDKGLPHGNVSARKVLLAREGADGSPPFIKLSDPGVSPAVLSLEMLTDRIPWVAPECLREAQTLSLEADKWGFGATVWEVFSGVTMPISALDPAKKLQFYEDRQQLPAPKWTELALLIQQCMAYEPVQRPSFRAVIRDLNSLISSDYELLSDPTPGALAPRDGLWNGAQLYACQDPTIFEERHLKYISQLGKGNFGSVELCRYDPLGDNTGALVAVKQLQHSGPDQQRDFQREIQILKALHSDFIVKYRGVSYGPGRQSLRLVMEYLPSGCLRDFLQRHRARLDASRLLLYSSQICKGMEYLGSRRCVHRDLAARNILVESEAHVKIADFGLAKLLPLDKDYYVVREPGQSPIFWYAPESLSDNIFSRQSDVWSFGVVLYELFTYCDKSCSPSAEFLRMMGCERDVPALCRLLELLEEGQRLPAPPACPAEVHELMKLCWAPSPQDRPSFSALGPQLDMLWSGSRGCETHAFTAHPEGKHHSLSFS
Experimental: The inhibition of the FLT3 kinase activity was measured with homogeneous, time-resolved fluorescence (HTRF) assays. Recombinant proteins containing the FLT3 kinase domain were purchased from Carna biosciences (Japan). Optimal enzyme, ATP, and substrate concentrations were established with the HTRF KinEASE kit (Cisbio, France) according to the manufacturer’s instructions. The FLT3 enzymes were mixed with serially diluted compounds and peptide substrates in a kinase reaction buffer (50 mM HEPES (pH 7.0), 500 μM ATP, 0.1 mM sodium orthovanadate, 5 mM MgCl2, 1 mM DTT, 0.01% bovine serum albumin (BSA), and 0.02% NaN3). After the addition of the reagents for detection, the TR-FRET signal was measured with a Victor multilabel reader (Perkin Elmer, Waltham, MA, USA). The IC50 was calculated with nonlinear regression using Prism version 5.01 (GraphPad). JAK2, JAK3, cMET, and RET in vitro kinase assays were also carried out using the HTRF assay kit.

COC(=O)c1ccc2c(c1)/C(=C1/Nc3ccccc3/C1=N\OCCN1CCNCC1)C(=O)N2.Cl.Cl [LDD1937, methyl (2Z,3E)-2′-oxo-3-((2-(piperazin-1-yl)ethoxy)imino)-[2,3′-biindolinylidene]-5′-carboxylate dihydrochloride]
phosphorylated STAT5 ([1]; 1 nM): a reduction in the phosphorylated STAT5 was observed
phospho-STAT5 band ([1]; 0.1 µM): completely disappeared
IC50 (JAK3): 690 ± 59.9 nM
